According to patent US9233078B2, “Nanoparticles comprising a non-ionizable polymer and an Amine-functionalized methacrylate copolymer” (Bend Research, Inc., priority 2007, dated 2016):
Converted amounts (≈) assume the structure as drawn.

Legend:
[1] = Aqueous solubility of the drugs; type: physicochemical; settings: water
Log P of Drug 1 = type: physicochemical; settings: octanol/water
Source text: The first property of hydrophobic drugs is that they are extremely hydrophobic. Log P, defined as the base 10 logarithm of the ratio of the drug solubility in octanol to the drug solubility in water, is a widely accepted measure of hydrophobicity. By “extremely hydrophobic” is meant that the Log P value of the drug is at least 4.0, preferably at least 4.5, and most preferably at least 5.0. Log P may be measured experimentally or calculated using methods known in the art. When using a calculated value for Log P, the highest value calculated using any generally accepted method for calculating Log P is used. Calculated Log P values are often referred to by the calculation method, such as Clog P, Alog P, and Mlog P. The Log P may also be estimated using fragmentation methods, such as Crippen's fragmentation method (27 J. Chem. Inf. Comput. Sci. 21 (1987)); Viswanadhan's fragmentation method (29 J. Chem. Inf. Comput. Sci. 163 (1989)); or Broto's fragmentation method (19 Eur. J. Med. Chem.-Chim. Theor. 71 (1984). Preferably the Log P value is calculated by using the average value estimated using Crippen's, Viswanadhan's, and Broto's fragmentation methods.

[2] = Free drug analysis, 100,000-dalton cutoff filtration and HPLC; type: physicochemical; settings: 2.5 mgA/mL suspension in deionized water with dextrose, about 300 mOsm
Method: The suspension was filtered using a centrifuge tube filter with a 100,000-dalton molecular-weight cutoff. The filtrate solution was assayed by high-performance liquid chromatography (HPLC).

[3] = for Observations: pH 6.5
Method: The polymer is a poorly aqueous soluble non-ionizable polymer. […] An appropriate PBS solution is an aqueous solution comprising 20 mM sodium phosphate (Na2HPO4), 47 mM potassium phosphate (KH2PO4), 87 mM NaCl, and 0.2 mM KCl, adjusted to pH 6.5 with NaOH. A test to determine whether the polymer is poorly aqueous soluble may be performed as follows. The polymer is initially present in bulk powder form with average particle sizes of greater than about 1 micron. The polymer alone is administered at a concentration of 0.2 mg/mL to the PBS solution and stirred for approximately 1 hour at room temperature. Next, a nylon 0.45 μm filter is weighed, and the polymer solution is filtered. The filter is dried overnight at 40° C., and weighed the following morning. The amount of polymer dissolved is calculated from the amount of polymer added to the PBS solution minus the amount of polymer remaining on the filter (mg). […] First, 0.2 mg/mL of the polymer was added to a PBS solution consisting of 20 mM Na2HPO4, 47 mM KH2PO4, 87 mM NaCl, and 0.2 mM KCl, adjusted to pH 6.5 with NaOH. The polymer was stirred in the PBS solution for approximately 1 hour at room temperature. Next, the polymer solution was filtered through a nylon 0.45 μm filter that was weighed dry prior to filtration. The filter was dried overnight at 40° C., and weighed the following morning. The amount of soluble polymer was calculated from the amount of polymer added to form the polymer solution minus the amount of polymer remaining on the filter.

**Q.** With `Cc1onc(-c2ccccc2)c1-c1ccc(S(N)(=O)=O)cc1` [Drug 1, 4-(5-methyl-3-phenyl-4-isoxazolyl) benzenesulfonamide] as the compound, how does the solubility [1] read?
**A.** ~10 µg/mL (≈ 31.8 µM)

**Q.** What about the logP (Log P of Drug 1) of the same compound?
**A.** ~3

**Q.** What about the “Free Drug” value [2] of the same compound?
**A.** 11 µg/mL

**Q.** Which solubility [1] does the source give for `CC[C@@H]1C[C@H](N(Cc2cc(C(F)(F)F)cc(C(F)(F)F)c2)C(C)=O)c2cc(C(F)(F)F)ccc2N1C(=O)OC(C)C` [Drug 2, [2R,4S] 4-[acetyl-(3,5-bis-trifluoromethyl-benzyl)-amino]-2-ethyl-6-trifluoromethyl-3,4-dihydro-2H-quinoline-1-carboxylic acid isopropyl ester] here?
**A.** < 1 µg/mL

**Q.** For `Cc1ccc(C)c(Cc2nc(CO)nn2-c2ccc(S(N)(=O)=O)cc2F)c1` [Drug 3], which solubility [1] is on record?
**A.** ~650 µg/mL (≈ 1660 µM)

**Q.** For `COCCN(C)Cc1nc(Cc2cccc(C)c2)n(-c2ccc(S(N)(=O)=O)cc2F)n1` [Drug 4], which solubility [1] is on record?
**A.** ~740 µg/mL (≈ 1650 µM)

**Q.** Which solubility [1] does the source give for `CCNC1CN(CCCOC)S(=O)(=O)c2sc(S(N)(=O)=O)cc21` (centres unmarked) [Drug 5, brinzolamide, reference compound] here?
**A.** ~490 µg/mL (≈ 1280 µM)

**Q.** Which “Amount Soluble at pH 6.5” value [3] does the source give for cellulose triacetate here?
**A.** <0.001 mg/mL

**Q.** And the Observations [3]?
**A.** Fine particle

**Q.** Which “Amount Soluble at pH 6.5” value [3] does the source give for ethylcellulose here?
**A.** <0.001 mg/mL

**Q.** What about the Observations [3] of the same compound?
**A.** Fine particle
